Results published in patent US4531001A, “2-β-D-ribofuranosylselenazole-4-carboxamide compounds” (priority 1983, dated 1985).
pIC50: −log10 of the molar value. Several values for one entry are separate records, joined by “and”; a condition that tells them apart may be missing. Equal values may be shown once. Entries after “also recorded” stand apart in the source; their conditions may differ.

Tests used:
B16 Melanoma = assay: Growth inhibition in suspension cell culture, B16 Melanoma; assay type: cell-based; conditions: Mus musculus, 72 hours, cell count 50 percent of untreated control, read-out: ID50 (the source's name)
Experimental: (§1) In further tests, growth-inhibitory effects of COMPOUND 1 and COMPOUND 2 were measured against 3 mouse tumor lines in suspension cell culture. Cell cultures were initiated at a density of 50,000 cells/ml in medium RPMI 1630 supplemented with 10 percent fetal calf serum. Composition of this culture medium and details of the culture procedure followed the published method (G. E. Moore, A. A. Sandberg and K. Ulrich, Suspension Cell Culture and in vivo and in-vitro chromosome constitution of mouse leukemia L1210, Journal of the National Cancer Institute 36, 405-415, 1966). Cultures were maintained at 37 degrees in stationary suspension culture under a 95 percent air+5 percent CO2 atmosphere. Test compounds were added to treated cultures at the time of initiation, and were present continually. After 72 hours, 40-fold dilutions of drug-treated and untreated control cultures were prepared in 0.9 percent NACl solution, and cells were counted on an electronic particle counter. The growth-inhibitory effects are expressed as ID50 values, namely, test compound inhibitory dosages or concentrations required to decrease cell count in treated cultures to 50 percent of the cell count of untreated control cultures.

[1] = Solubility in aqueous media
cell culture = assay: Cytotoxicity in cell culture
3 mouse tumor lines = assay: Growth inhibition in suspension cell culture, representative tumor lines; assay type: cell-based; conditions: representative tumor lines in cell culture
Experimental: as §1

Hela cells = assay: Toxicity to Hela cells; conditions: 1000 ug/ml (highest concentration tested)
P388 = assay: Growth inhibition in suspension cell culture, P388; assay type: cell-based; conditions: Mus musculus, 72 hours, cell count 50 percent of untreated control, read-out: ID50 (the source's name)
Experimental: as §1

Lewis lung carcinoma [2] = assay: Antitumor activity against Lewis lung carcinoma, Example 12 (Table 1); assay type: in vivo, B6 D2 F1 male mice; conditions: for Treated Group Survival Time: median, control 19.0, 60-day test
Experimental: (§2) As illustrative examples of the antitumor use of COMPOUNDS 1 and 2, Examples 12 through 14, below, are given. […] The tests utilized in these illustrative examples were conducted by the Developmental Therapeutics Program, Division of Cancer Treatment, National Cancer Institute. The tests were supervised by this agency utilizing their standard protocols and procedures. All tests conformed to these protocols and all tests were evaluated under the criteria defined by these protocols. The following representative examples illustrate confirmed activity of the illustrative compounds of the invention against screening tumor systems of the National Cancer Institute.
(§3) For purposes of the following examples, the abbreviation IP stands for intraperitoneal and IV stands for intravenous. The mean and median survival times are calculated in instruction 14 (revised 6/78) of the Screening Data Summary, Developmental Therapeutics Program, Division of Cancer Treatment, National Cancer Institute. The contents of this Screening Data Summary including appropriate revisions are herein incorporated by reference.
(§4) In the illustrated examples below, the vehicle used as carrier for the drug was injected (minus any drug therein) into the control animals at the same level of use of the vehicle in the drug treated animals in order to eliminate any vehicle effect of the tests.
For example 12, B6 D2 F1 male mice were used and challenged with Lewis lung carcinoma. The median survival time of the test animals was compared to that of appropriate control animals.
In Example 12, forty control animals and ten test animals were used, each at dose levels indicated below in Table 1. For both the control group and the drug treated group, tumors were induced by IV injection on day zero followed by initiation of drug treatment on day one. For Example 12 water was used as the drug vehicle.
In both the control group and the drug treated group in Example 12, the animals were inoculated on day zero with a homogenate of 10^6 seed cells of Lewis lung carcinoma. For Example 12, drug treatment was started on day one and COMPOUND 1 given once daily for nine days. Day five was utilized as the cut-off date for deaths attributable to toxicity of the drug. […] Efficacy of treatment was determined by comparing median survival time of the control animals and is expressed as percentage increase of treated animals/control animals (T/C).
The test period was for sixty days and at the end of the sixty day period all animals surviving in the test groups were evaluated as either cured, no-takes, or tumor survivors.
In this example, the drug tested animals were injected IP with the dose level noted in Table I below. Ten animals were treated at each dose level. No control animals survived beyond day 23 with a median death rate of day 19.0.

Lewis lung carcinoma [3] = assay: Antitumor activity against Lewis lung carcinoma, Example 13 (Table II); assay type: in vivo, B6 D2 F1 female mice; conditions: for Treated Group Survival Time: median, control 16.9
Experimental: as §2, §3, §4
In this example COMPOUND 1 was tested in B6 D2 F1 female mice challenged with Lewis lung carcinoma. The median survival time of the test animals was compared to that of appropriate control animals.

[4] = 3 mg/kg IP once daily for nine days
[5] = 6 mg/kg IP once daily for nine days
[6] = 9 mg/kg IP once daily for nine days
[7] = 13 mg/kg IP once daily for nine days
[8] = 20 mg/kg IP once daily for nine days
[9] = 33 mg/kg IP once daily for nine days
[10] = 50 mg/kg IP once daily for nine days
[11] = 75 mg/kg IP once daily for nine days
[12] = 12 mg/kg (12.50 mg/kg in source)

Compound: NC(=O)c1c[se]c([C@@H]2O[C@H](CO)[C@@H](O)[C@H]2O)n1 [COMPOUND 1, 2-β-D-ribofuranosylselenazole-4-carboxamide]
- pIC50 (B16 Melanoma): 5.46
- solubility in aqueous media [1]: soluble in aqueous media
- cytotoxicity in words (cell culture): low cytotoxicity
- growth inhibition in words (3 mouse tumor lines): inhibit growth in cell culture for representative tumor lines at extremely low dosage
- toxicity to cells (Hela cells): non-toxic
- pIC50 (P388): 6.57
- Cures (Lewis lung carcinoma [2]; [4]): One and 1/10
- Percent Treated Animal/Control Animal (T/C) (Lewis lung carcinoma [2]; [4]): 152%
- Treated Group Survival Time (Lewis lung carcinoma [2]; [4]): 28.9
- Cures (Lewis lung carcinoma [2]; [5]): 1/10
- Treated Group Survival Time (Lewis lung carcinoma [2]; [5]): 12.0
- Cures (Lewis lung carcinoma [2]; [6]): 3/10
- Treated Group Survival Time (Lewis lung carcinoma [2]; [6]): 10.4
- Cures (Lewis lung carcinoma [2]; [7]): 5 out of 10 and 5/10
- Percent Treated Animal/Control Animal (T/C) (Lewis lung carcinoma [2]; [7]): 315%
- Treated Group Survival Time (Lewis lung carcinoma [2]; [7]): 60.0
- Cures (Lewis lung carcinoma [2]; [8]): 2/10
- Treated Group Survival Time (Lewis lung carcinoma [2]; [8]): 16.0
- Cures (Lewis lung carcinoma [2]; [9]): 3/10
- Percent Treated Animal/Control Animal (T/C) (Lewis lung carcinoma [2]; [9]): 94%
- Treated Group Survival Time (Lewis lung carcinoma [2]; [9]): 18.0
- Cures (Lewis lung carcinoma [2]; [10]): 1/10
- Percent Treated Animal/Control Animal (T/C) (Lewis lung carcinoma [2]; [10]): 94%
- Treated Group Survival Time (Lewis lung carcinoma [2]; [10]): 18.0
- Cures (Lewis lung carcinoma [2]; [11]): 7 out of 10 and 7/10
- Percent Treated Animal/Control Animal (T/C) (Lewis lung carcinoma [2]; [11]): 315%
- Treated Group Survival Time (Lewis lung carcinoma [2]; [11]): 60.0
- survival of treated animals in words (Lewis lung carcinoma [2]; 75 and 13 mg/kg IP): all of the treated animals survived
- antitumor activity in words (Lewis lung carcinoma [2]; Lewis lung carcinoma, mice): active against Lewis lung carcinoma; also recorded: outstanding activity against Lewis lung carcinoma
- mortality attributable to drug toxicity (Lewis lung carcinoma [2]; cut-off day five, 3-75 mg/kg IP once daily): no mortality attributable to drug toxicity
- DN2 criteria of NCI (Lewis lung carcinoma [2]; mouse, in vivo): successfully passed the DN (decision network) 2 criteria; also recorded: DN2 criteria of NCI were passed
- Cures (Lewis lung carcinoma [3]; [12]): 8 out of 10 and 8/10
- Percent Treated Animals/Control Animals (T/C) (Lewis lung carcinoma [3]; [12]): 355%
- Treated Group Survival Time (Lewis lung carcinoma [3]; [12]): 60.0
- Cures (Lewis lung carcinoma [3]; 25 mg/kg): 7 out of 10 and 7/10
- Percent Treated Animals/Control Animals (T/C) (Lewis lung carcinoma [3]; 25 mg/kg): 355%
- Treated Group Survival Time (Lewis lung carcinoma [3]; 25 mg/kg): 60.0
- Cures (Lewis lung carcinoma [3]; 50 mg/kg): 6 out of 10 and 6/10
- Percent Treated Animals/Control Animals (T/C) (Lewis lung carcinoma [3]; 50 mg/kg): 355%
- Treated Group Survival Time (Lewis lung carcinoma [3]; 50 mg/kg): 60.0
- Cures (Lewis lung carcinoma [3]; 100 mg/kg): 3/10
- Percent Treated Animals/Control Animals (T/C) (Lewis lung carcinoma [3]; 100 mg/kg): 120%
- Treated Group Survival Time (Lewis lung carcinoma [3]; 100 mg/kg): 20.3
- Cures (Lewis lung carcinoma [3]; 200 mg/kg): 0/10
- Treated Group Survival Time (Lewis lung carcinoma [3]; 200 mg/kg): 10.7
- survival of test animals in words (Lewis lung carcinoma [3]; 50, 25 and 12.50 mg/kg): all of the test animals survived
- antitumor activity in words (Lewis lung carcinoma [3]; median survival time versus control): effective antitumor agent
